# Reference: article PMC10786919, “Design-rules for stapled peptides with in vivo activity and their application to Mdm2/X antagonists” (Nature Communications, 2024)
# Like-named read-outs stand apart in the source and are kept apart here. Positions of bridges follow the written chain, without caps; N, C: chain ends. Non-standard residues stand in square brackets, D forms with d. Residues, ends and D or L forms follow the SMILES beside them. Phe(4-SO3H) = N[C@@H](Cc1ccc(S(=O)(=O)O)cc1)C(=O)O; Lys(N3) = [N-]=[N+]=NCCCC[C@H](N)C(=O)O; R8 = C=CCCCCCC[C@@](C)(N)C(=O)O; Cba = N[C@@H](CC1CCC1)C(=O)O; S5 = C=CCCC[C@](C)(N)C(=O)O; βAla = NCCC(=O)O
# Experiments:
# [1] = Lactate dehydrogenase (LDH) release assay; format: cell-based
# In short: (§1)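 HCT116 cells stably carrying a p53-responsive β-lactamase reporter were seeded at 8000 cells per well with a final DMSO level of 0.5%. Membrane integrity was assessed by lactate dehydrogenase release using a homogeneous fluorometric kit. Values are geometric means of at least three biological replicates.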
# [2] = system: HCT116 cells; assay: Lactate dehydrogenase (LDH) release assay; format: cell-based
# In short: as §1
# [3] = Solubility assay (kinetic solubility, PBS pH 7); format: physicochemical; details: pH 7, aqueous buffer, kinetic from dmso stock, pH 7, PBS; read-out: Solubility
# In short: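 Quantitation uses an external standard at 100 µM, prepared from 10 mM stock in acetonitrile:methanol:DMSO (10:80:10). Solubility (µM) = (peak area of sample ÷ peak area of standard) × standard concentration.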
# [4] = Experimental LogD (partition coefficient); details: not stated, Partition Coeff LogD
# [5] = Nanoclick permeability assay
# Text: Further, there have been several literature reports[18]–[20] that highlight that the combination of hydrophobic character and positive charge can result in mast cell degranulation (MCD), a potentially fatal condition[18]–[20]. […] The NanoClick assay[22] determines permeability of azide-labeled peptides by combining intracellular copper-free click chemistry with NanoBRET technology. Specifically, if an azido-peptide achieves cytosolic exposure, it will react with a cyclooctyne-decorated Halotag construct that is fused with nanoluciferase. This reaction blocks the click labelling of a subsequently added azido-labeled acceptor dye, thus decreasing the NanoBRET signal in a manner that is target-binding agnostic.
# This assay was previously described in detail. The assay was performed in 384-well white assay plates (PerkinElmer CUSG03874) using assay-ready frozen cells that had been transiently transfected with the NanoLuc-HaloTag vector that were thawed at plated in complete media at a density of 6000 cells/ well and incubated at 37 °C 5% CO2 overnight. DIBAC-CA was diluted in assay buffer (OptiMem without phenol red + 1% FBS) and added to cells at a final concentration of 3 μM and incubated at 37 °C 5% CO2 for 1 h. Cells were subsequently centrifuged using a BlueWasher instrument (Blue Cat Bio) to remove the DIBAC-CA solution and washed two times with HBSS (Ca2 + , Mg2 + ). A volume of 30 μL of assay buffer was added back to cell plates. Peptides were serially diluted 4-fold in DMSO with a Hamilton Star apparatus and then delivered into assay plates with an acoustic liquid handler Labcyte ECHO (300 nl, 1% DMSO in-well concentration). After incubating cells with peptide for the desired time (4 or 18 h), the HaloTag ligand, NanoBret618-azide, was added to each well at a final concentration of 10 μM. […] Following addition of NanoBRET Nano-Glo Substrate, donor emission (450 nm) and acceptor emission (610 nm) were measured using an Envision instrument (PerkinElmer).
# [6] = 0% FBS 4Hr, read-out: LDH: Cytotoxicity assay: EC50
# [7] = Nanoclick permeability assay EC50
# [8] = 0% FBS 4Hr, read-out: LDH: Cytotoxicity assay EC50
# [9] = 10% FBS 16Hr, read-out: LDH: Cytotoxicity assay EC50
structure (smiles),measurement,setting,value
CC(=O)N[C@@H](CCCCN=[N+]=[N-])C(=O)NCCC(=O)N[C@@H](CC(C)C)C(=O)N[C@H](C(=O)N[C@@H](Cc1ccccc1)C(=O)N[C@]1(C)CCCCCCC=CCCC[C@@](C)(C(=O)NCC(=O)NCC(=O)NCC(=O)NCC(=O)NCC(=O)NCC(N)=O)NC(=O)[C@H](CC2CCC2)NC(=O)[C@H](CCC(N)=O)NC(=O)[C@H](C)NC(=O)[C@H](Cc2c[nH]c3ccccc23)NC(=O)[C@H](Cc2ccc(O)cc2)NC(=O)[C@H](CCC(=O)O)NC1=O)[C@@H](C)O [MP-289] (Ac-[Lys(N3)][βAla]LTF[R8]EYWAQ[Cba][S5]GGGGGG-NH2; staple 6-13),EC50,[1]; [6],> 50.7 µM
same,EC50,"[1]; 10% FBS 16Hr, read-out: LDH: Cytotoxicity assay: EC50",> 50.7 µM
same,LDH: Cytotoxicity assay: % Effect,[2]; 0% FBS 4Hr,-4.216%
same,LDH: Cytotoxicity assay: % Effect,[2]; 10% FBS 16Hr,3.579%
same,solubility kinetic,[3],142 µM
same,logD,[4],2.58
same,cell entry EC50,[5],0.615 µM
CC(=O)N[C@@H](CCC(=O)O)C(=O)N[C@@H](CCC(=O)O)C(=O)N[C@@H](CCC(=O)O)C(=O)N[C@@H](CCCCN=[N+]=[N-])C(=O)NCCC(=O)N[C@@H](CC(C)C)C(=O)N[C@H](C(=O)N[C@@H](Cc1ccccc1)C(=O)N[C@]1(C)CCCCCCC=CCCC[C@@](C)(C(=O)N[C@@H](CCC(=O)O)C(=O)N[C@@H](CCC(=O)O)C(=O)N[C@@H](CCC(=O)O)C(N)=O)NC(=O)[C@H](CC2CCC2)NC(=O)[C@H](CCC(N)=O)NC(=O)[C@H](C)NC(=O)[C@H](Cc2c[nH]c3ccccc23)NC(=O)[C@H](Cc2ccc(O)cc2)NC(=O)[C@H](CCC(=O)O)NC1=O)[C@@H](C)O [MP-764] (Ac-EEE[Lys(N3)][βAla]LTF[R8]EYWAQ[Cba][S5]EEE-NH2; staple 9-16),EC50,[1]; LDH: Cytotoxicity assay: EC50,> 50.6 µM
same,LDH: Cytotoxicity assay: % Effect,[2],-1.252%
same,solubility kinetic,[3],22 µM
same,logD,[4],1.26
same,cell entry EC50,[5]; [7],2.67 µM
CC(C)C[C@@H]1NC(=O)[C@H](C)NC(=O)[C@H](Cc2c[nH]c3ccccc23)NC(=O)[C@H](Cc2ccc(O)cc2)NC(=O)[C@H](CCC(=O)O)NC(=O)[C@](C)(NC(=O)[C@H](Cc2ccccc2)NC(=O)[C@H](CO)NC(=O)[C@@H](NC(=O)[C@H](CO)NC(=O)CNC(=O)[C@H](CO)NC(=O)[C@H](CCCCN=[N+]=[N-])NC(=O)[C@@H](N)CCC(=O)O)[C@@H](C)O)CCCCCCC=CCCC[C@@](C)(C(N)=O)NC(=O)[C@H](CC(C)C)NC1=O [MP-0180],EC50,[1]; LDH: Cytotoxicity assay: EC50,> 50.6 µM
same,LDH: Cytotoxicity assay: % Effect,[2],13.96%
same,solubility kinetic,[3],24 µM
same,logD,[4],2.21
same,cell entry EC50,[5]; [7],0.495 µM
CC(=O)N[C@@H](CCCCN=[N+]=[N-])C(=O)NCCC(=O)N[C@@H](CC(C)C)C(=O)N[C@H](C(=O)N[C@@H](Cc1ccccc1)C(=O)N[C@]1(C)CCCCCCC=CCCC[C@@](C)(C(=O)N[C@@H](C)C(=O)N[C@@H](C)C(=O)N[C@@H](C)C(=O)N[C@@H](CCC(=O)O)C(=O)N[C@@H](C)C(=O)N[C@H](C)C(N)=O)NC(=O)[C@H](CC2CCC2)NC(=O)[C@H](CCC(N)=O)NC(=O)[C@H](C)NC(=O)[C@H](Cc2c[nH]c3ccccc23)NC(=O)[C@H](Cc2ccc(O)cc2)NC(=O)[C@H](CCC(=O)O)NC1=O)[C@@H](C)O [MP-835] (Ac-[Lys(N3)][βAla]LTF[R8]EYWAQ[Cba][S5]AAAEA[dA]-NH2; staple 6-13),EC50,[1]; [8],> 50.7 µM
same,EC50,[1]; [9],> 50.7 µM
same,LDH: Cytotoxicity assay % Effect,[2]; 0% FBS 4Hr,3.786%
same,LDH: Cytotoxicity assay % Effect,[2]; 10% FBS 16Hr,22.41%
same,solubility kinetic,[3],162 µM
same,logD,[4],2.16
same,cell entry EC50,[5],0.537 µM
CC(=O)N[C@@H](CCCCN=[N+]=[N-])C(=O)NCCC(=O)N[C@@H](Cc1ccc(S(=O)(=O)O)cc1)C(=O)N[C@H](C(=O)N[C@@H](Cc1ccccc1)C(=O)N[C@]1(C)CCCCCCC=CCCC[C@@](C)(C(=O)N[C@@H](CO)C(=O)N[C@@H](C)C(=O)N[C@@H](C)C(N)=O)NC(=O)[C@H](CC2CCC2)NC(=O)[C@H](CCC(N)=O)NC(=O)[C@H](C)NC(=O)[C@H](Cc2c[nH]c3ccccc23)NC(=O)[C@H](Cc2ccc(O)cc2)NC(=O)[C@H](CCC(=O)O)NC1=O)[C@@H](C)O [MP-7668] (Ac-[Lys(N3)][βAla][Phe(4-SO3H)]TF[R8]EYWAQ[Cba][S5]SAA-NH2; staple 6-13),EC50,[1]; LDH: Cytotoxicity assay: EC50,> 50.6 µM
same,LDH: Cytotoxicity assay: % Effect,[2],2.173%
same,solubility kinetic,[3],28 µM
same,logD,[4],2.31
same,cell entry EC50,[5]; [7],0.406 µM
CC(=O)N[C@@H](CCC(=O)O)C(=O)N[C@@H](CCC(=O)O)C(=O)N[C@@H](CCC(=O)O)C(=O)N[C@@H](CCCCN=[N+]=[N-])C(=O)NCCC(=O)N[C@@H](CC(C)C)C(=O)N[C@H](C(=O)N[C@@H](Cc1ccccc1)C(=O)N[C@]1(C)CCCCCCC=CCCC[C@@](C)(C(=O)N[C@@H](CO)C(=O)N[C@@H](C)C(=O)N[C@@H](C)C(N)=O)NC(=O)[C@H](CC2CCC2)NC(=O)[C@H](CCC(N)=O)NC(=O)[C@H](C)NC(=O)[C@H](Cc2c[nH]c3ccccc23)NC(=O)[C@H](Cc2ccc(O)cc2)NC(=O)[C@H](CCC(=O)O)NC1=O)[C@@H](C)O [MP-617],EC50,[1]; LDH: Cytotoxicity assay: EC50,> 50.6 µM
same,LDH: Cytotoxicity assay: % Effect,[2],-1.09%
same,solubility kinetic,[3],81.5 µM
same,logD,[4],2.09
same,cell entry EC50,[5]; [7],0.842 µM
"CC(=O)N[C@@H](CCCCN=[N+]=[N-])C(=O)NCCC(=O)N[C@@H](CC(=O)O)C(=O)N[C@H](C(=O)N[C@@H](Cc1ccccc1)C(=O)N[C@]1(C)CCCCCCC=CCCC[C@@](C)(C(=O)N[C@@H](CO)C(=O)N[C@@H](C)C(=O)N[C@@H](C)C(N)=O)NC(=O)[C@H](CC2CCC2)NC(=O)[C@H](CCC(N)=O)NC(=O)[C@H](CC(=O)O)NC(=O)[C@H](Cc2c[nH]c3ccccc23)NC(=O)[C@H](Cc2ccc(O)cc2)NC(=O)[C@H](CC(=O)O)NC1=O)[C@@H](C)O [MP-495, azide-ATSP-7041 (L1D, E5D, A8D)] (Ac-[Lys(N3)][βAla]DTF[R8]DYWDQ[Cba][S5]SAA-NH2; staple 6-13)",EC50,[1]; [6],> 50.6 µM
same,LDH: Cytotoxicity assay: % Effect,[2]; 0% FBS 4Hr,1.328%
same,solubility kinetic,[3],78.7 µM
same,logD,[4],1.93
same,cell entry EC50,[5],0.327 µM
CC(=O)N[C@@H](CCCCN=[N+]=[N-])C(=O)NCCC(=O)N[C@@H](CC(C)C)C(=O)N[C@H](C(=O)N[C@@H](Cc1ccccc1)C(=O)N[C@]1(C)CCCCCCC=CCCC[C@@](C)(C(=O)N[C@@H](CCC(=O)O)C(=O)N[C@@H](CC(N)=O)C(=O)N[C@@H](Cc2ccccc2)C(N)=O)NC(=O)[C@H](CC2CCC2)NC(=O)[C@H](CCC(N)=O)NC(=O)[C@H](C)NC(=O)[C@H](Cc2c[nH]c3ccccc23)NC(=O)[C@H](Cc2ccc(O)cc2)NC(=O)[C@H](CCC(=O)O)NC1=O)[C@@H](C)O [MP-328] (Ac-[Lys(N3)][βAla]LTF[R8]EYWAQ[Cba][S5]ENF-NH2; staple 6-13),EC50,[1]; [6],> 50.6 µM
same,LDH: Cytotoxicity assay: % Effect,[2]; 0% FBS 4Hr,-1.88%
same,solubility kinetic,[3],108 µM
same,logD,[4],2.65
same,cell entry EC50,[5],0.0663 µM
CC(=O)N[C@@H](CCCCN=[N+]=[N-])C(=O)NCCC(=O)N[C@@H](CC(C)C)C(=O)N[C@H](C(=O)N[C@@H](Cc1ccccc1)C(=O)N[C@]1(C)CCCCCCC=CCCC[C@@](C)(C(=O)N[C@@H](C)C(=O)N[C@@H](CCC(N)=O)C(=O)N[C@@H](C)C(=O)N[C@@H](C)C(=O)N[C@@H](C)C(=O)N[C@H](C)C(N)=O)NC(=O)[C@H](CC2CCC2)NC(=O)[C@H](CCC(N)=O)NC(=O)[C@H](C)NC(=O)[C@H](Cc2c[nH]c3ccccc23)NC(=O)[C@H](Cc2ccc(O)cc2)NC(=O)[C@H](CCC(=O)O)NC1=O)[C@@H](C)O [MP-966] (Ac-[Lys(N3)][βAla]LTF[R8]EYWAQ[Cba][S5]AQAAA[dA]-NH2; staple 6-13),EC50,[1]; [8],> 50.7 µM
same,EC50,[1]; [9],> 50.7 µM
same,LDH: Cytotoxicity assay % Effect,[2]; 0% FBS 4Hr,-1.602%
same,LDH: Cytotoxicity assay % Effect,[2]; 10% FBS 16Hr,12.04%
same,solubility kinetic,[3],160 µM
same,logD,[4],3.07
same,cell entry EC50,[5],6.1 µM
